Laboratory results as given in patent US20220096503A1, “COMBINATION PHARMACEUTICAL COMPOSITIONS AND METHODS THEREOF” (University of Washington, priority 2019, published 2022).
Like-named read-outs stand apart in the source and are kept apart here.

How the values were obtained:
[1] = Non-human Primates, SC; cited from earlier work
[2] = Human, IV; cited from earlier work
[3] = Conventional dosage form LPV/RTV, oral administration, non-human primates (Example 4); type: in vivo; conditions: non-human primates vs humans
Description: AUC (area under the curve, or total drug exposure) of the active drug lopinavir was dose normalized across species and route of administration by dividing the total exposure by the dose administered (μg*hr*kg/(mL*mg)). Dashes represent unreported data. Apparent half-life is reported in hours.

Row | Structure (SMILES) | AUC (dose normalized) [1] [µg·kg·h/mL/mg] | T1/2, app [1] [h] | AUC (dose normalized) [2] [µg·kg·h/mL/mg] | T1/2, app [2] [h] | total AUC of lopinavir (PO) in non-human primates, fold lower than humans [3] [fold]
1 | C[C@H](Cn1cnc2c(N)ncnc21)OCP(=O)(O)O [TFV, tenofovir] | 2.1 | 8 | 5.6 | 6.6 | 
2 | Cc1cccc(C)c1OCC(=O)N[C@@H](Cc1ccccc1)[C@@H](O)C[C@H](Cc1ccccc1)NC(=O)[C@H](C(C)C)N1CCCNC1=O [lopinavir] |  |  |  |  | 10
